Laboratory results from patent US20190300882A1, “METHODS OF TREATING NEUROBLASTOMA AND REAGENTS THEREFOR” (GARVAN INSTITUTE OF MEDICAL RESEARCH, priority 2016, published 2019).

What was measured:
Assay type in all cases: cell-based
KELLY cells [1] = experiment: Secondary validation screen of lethal miRNAs, cell viability; details: miRNA mimic alone
Method: (§1) Each of the cell lines were reverse transfected in 384-well plate format with 25 nM of a miRNA from the Dharmacon miRNA mimic or inhibitor libraries (version 16.0) using liquid-handling robot Calliper Sciclone ALH3000 according to the conditions described in Table 3. After 24 hours, media was changed using BioTek 406, and 144 hours post-transfection, cell viability was determined using CellTiter-Glo luminescent assay (Promega) at 1:2 dilution. Luminescence measurements were taken on the Synergy H4 high-throughput multimode microplate reader. All screens were performed in duplicates.
(§2) The secondary validation screens were performed in accordance with the genome-wide screens described in Example 1 and Example 2, respectively, with the exception that an additional MYCN-amplified neuroblastoma cell line (SK-N-DZ) was added to each screen.
(§3) Furthermore, five additional non-active miRNAs discovered to have no measureable effect across all treatment groups of the genome-wide screen (‘non-lethal’ miRNAs) were included as negative controls.

SHEP cells [2] = experiment: as above; details: miRNA mimic alone
Method: as §1, §2, §3

[3] = test system: SK-N-DZ MYCN-amplified neuroblastoma cell line; experiment: Secondary validation screen of lethal miRNAs, additional cell line, cell viability; details: miRNA mimic alone
Method: as §1, §2, §3

SHEP cells [4] = experiment: Primary functional miRNA mimic screen, CellTiter-Glo cell viability; details: miRNA mimic 25 nM alone, 144 hours post-transfection
Description: Breast cancer cell lines (MDA-MB-231, MDA-MB-468, SK-BR-3; BT474) and prostate cancer cell lines (PC3, DU145) were obtained from American Type Culture Collection (ATCC). Neuroblastoma cell lines (KELLY, SHEP) were received from Children's Cancer Institute (CCIA). The KELLY cells were selected as a MYCN amplified neuroblastoma cell line and the SHEP cells were selected as a MYCN wild-type neuroblastoma cell line.
All breast and prostate cancer cell lines were cultivated in RPMI media supplemented with 10% FCS, HEPES, and insulin. The neuroblastoma cell lines, KELLY, SHEP, were grown in 10% FCS/RPMI and 10% FCS/DMEM, respectively.
as §1
Raw viability was normalised to a nontargeting control (OTP) or mock wells, and death genes or controls inducing varying levels of death were used to monitor transfection efficiency and to define dynamic range in each screen (FIG. 1). To define screen hits, normalised viability scores were binned in the following manner: CV1 bin included candidates with viability >=0.8; CV2 bin included candidates with viability <0.8 and >0.5, and LC bin was assigned to candidates with normalised viability <=0.5. Only LC candidates were defined as screen hits.

KELLY cells [5] = experiment: as above; details: miRNA mimic 25 nM alone, 144 hours post-transfection
Description: Breast cancer cell lines (MDA-MB-231, MDA-MB-468, SK-BR-3; BT474) and prostate cancer cell lines (PC3, DU145) were obtained from American Type Culture Collection (ATCC). Neuroblastoma cell lines (KELLY, SHEP) were received from Children's Cancer Institute (CCIA). The KELLY cells were selected as a MYCN amplified neuroblastoma cell line and the SHEP cells were selected as a MYCN wild-type neuroblastoma cell line. All breast and prostate cancer cell lines were cultivated in RPMI media supplemented with 10% FCS, HEPES, and insulin. […] Each of the cell lines were reverse transfected in 384-well plate format with 25 nM of a miRNA from the Dharmacon miRNA mimic or inhibitor libraries (version 16.0) using liquid-handling robot Calliper Sciclone ALH3000 according to the conditions described in Table 3. […] Luminescence measurements were taken on the Synergy H4 high-throughput multimode microplate reader. All screens were performed in duplicates. Raw viability was normalised to a nontargeting control (OTP) or mock wells, and death genes or controls inducing varying levels of death were used to monitor transfection efficiency and to define dynamic range in each screen (FIG. 1). To define screen hits, normalised viability scores were binned in the following manner: CV1 bin included candidates with viability >=0.8; […] Only LC candidates were defined as screen hits.

Substance | Secondary screen Viability (% of control) KELLY (KELLY cells [1]) | Secondary screen Viability (% of control) SHEP (SHEP cells [2]) | Additional cell line Viability (% of control) SKNDZ [3] | Primary screen Viability (% of control) SHEP (SHEP cells [4]) | Primary screen Viability (% of control) KELLY (KELLY cells [5])
hsa-miR-876-3p (guide UGGUGGUUUACAAAGUAAUUCA; chemistry not given here; listed as Homo sapiens) | 6 % of control | 51 % of control | 48 % of control | 94 % of control | 6 % of control
hsa-miR-491-3p (guide CUUAUGCAAGAUUCCCUUCUAC; chemistry not given here; listed as Homo sapiens) | 12 % of control | 34 % of control | 47 % of control | 26 % of control | 12 % of control
hsa-miR-192-3p (CUGCCAAUUCCAUAGGUCACAG; chemistry not given here; listed as Homo sapiens) | 54 % of control | 49 % of control | 97 % of control | 43 % of control | 42 % of control
hsa-miR-552 (guide AACAGGUGACUGGUUAGACAA; chemistry not given here; listed as Homo sapiens) | 2 % of control | 47 % of control | 36 % of control | 36 % of control | 2 % of control
hsa-miR-517c-3p (guide AUCGUGCAUCCUUUUAGAGUGU; chemistry not given here; listed as Homo sapiens) | 27 % of control | 43 % of control | 21 % of control | 40 % of control | 26 % of control
hsa-miR-550a-3p (guide UGUCUUACUCCCUCAGGCACAU; chemistry not given here; listed as Homo sapiens) | 15 % of control | 94 % of control | 82 % of control | 61 % of control | 4 % of control
hsa-miR-544a (guide AUUCUGCAUUUUUAGCAAGUUC; chemistry not given here; listed as Homo sapiens) | 17 % of control | 61 % of control | 59 % of control | 32 % of control | 7 % of control
hsa-miR-1262 (AUGGGUGAAUUUGUAGAAGGAU; chemistry not given here; listed as Homo sapiens) | 8 % of control | 42 % of control | 13 % of control | 31 % of control | 8 % of control
hsa-miR-654-5p (guide UGGUGGGCCGCAGAACAUGUGC; chemistry not given here; listed as Homo sapiens) | 7 % of control | 45 % of control | 28 % of control | 30 % of control | 6 % of control
hsa-miR-542-3p (guide UGUGACAGAUUGAUAACUGAAA; chemistry not given here; listed as Homo sapiens) | 20 % of control | 38 % of control | 28 % of control | 29 % of control | 6 % of control
hsa-miR-489 (guide GUGACAUCACAUAUACGGCAGC; chemistry not given here; listed as Homo sapiens) | 4 % of control | 43 % of control | 33 % of control | 40 % of control | 5 % of control
hsa-miR-103a-2-5p (AGCUUCUUUACAGUGCUGCCUUG; chemistry not given here; listed as Homo sapiens) | 39 % of control | 56 % of control | 52 % of control | 46 % of control | 26 % of control
hsa-miR-892b (guide CACUGGCUCCUUUCUGGGUAGA; chemistry not given here; listed as Homo sapiens) | 3 % of control | 34 % of control | 54 % of control | 30 % of control | 5 % of control
hsa-miR-148b-5p (AAGUUCUGUUAUACACUCAGGC; chemistry not given here; listed as Homo sapiens) | 8 % of control | 34 % of control | 21 % of control | 20 % of control | 5 % of control
hsa-miR-634 (guide AACCAGCACCCCAACUUUGGAC; chemistry not given here; listed as Homo sapiens) | 13 % of control | 12 % of control | 41 % of control | 8 % of control | 7 % of control
hsa-miR-1231 (GUGUCUGGGCGGACAGCUGC; chemistry not given here; listed as Homo sapiens) | 48 % of control | 46 % of control | 98 % of control | 15 % of control | 36 % of control
